Measurements taken from US20220132847A1, “CINNOLINIUM COMPOUNDS FOR USE IN A METHOD OF CONTROLLING UNWANTED PLANT GROWTH” (SYNGENTA CROP PROTECTION AG, priority 2019, published 2022).

system: Amaranthus palmeri (AMAPA); assay: Post-emergence efficacy, glasshouse; type: in vivo; conditions: Amaranthus palmeri, post-emergence, 312 h; Application Rate 1000 g/Ha; evaluated after 13 days; 100=total damage to plant, 0=no damage to plant; read-out: Control of weed species after post-emergence application, AMAPA
Protocol: (§1) Seeds of a variety of test species were sown in standard soil in pots. After cultivation for 14 days (post-emergence) under controlled conditions in a glasshouse (at 24/16° C., day/night; 14 hours light; 65% humidity), the plants were sprayed with an aqueous spray solution derived from the dissolution of the technical active ingredient formula (I) in a small amount of acetone and a special solvent and emulsifier mixture referred to as IF50 (11.12% Emulsogen EL360™+44.44% N-methylpyrrolidone+44.44% Dowanol DPM glycol ether), to create a 50 g/l solution which was then diluted to required concentration using 0.25% or 1% Empicol ESC70 (Sodium lauryl ether sulphate)+1% ammonium sulphate in water as diluent.
(§2) The test plants were then grown in a glasshouse under controlled conditions (at 24/16° C., day/night; 14 hours light; 65% humidity) and watered twice daily. After 13 days the test was evaluated (100=total damage to plant; 0=no damage to plant).
(§3) Ipomoea hederacea (IPOHE), Euphorbia heterophylla (EPHHL), Chenopodium album (CHEAL), Amaranthus palmeri (AMAPA), Lolium perenne (LOLPE), Digitaria sanguinalis (DIGSA), Eleusine indica (ELEIN), Echinochloa crus-galli (ECHCG), Setaria faberi (SETFA)

**Q.** `C[n+]1cc(C(=O)Nc2nncs2)c2ccccc2n1` [Compound A26] was tested. Which pest or weed control at 1000 g/ha did it give?
**A.** 20%

**Q.** For `CS(=O)(=O)[N-]C(=O)c1c[n+](CC(F)F)nc2ccccc12` [Compound A14, [2-(2,2-difluoroethyl)cinnolin-2-ium-4-carbonyl]-methylsulfonyl-azanide], which pest or weed control at 1000 g/ha is on record?
**A.** 20%

**Q.** With `C[C@@H](NC(=O)c1c[n+](C)nc2ccccc12)C(=O)OC(C)(C)C` [Compound A8, tert-butyl (2R)-2-[(2-methylcinnolin-2-ium-4-carbonyl)amino]propanoate iodide] as the compound, how does the pest or weed control at 1000 g/ha read?
**A.** 20%

system: Chenopodium album (CHEAL); assay: Post-emergence efficacy, glasshouse; type: in vivo; conditions: Chenopodium album, post-emergence, 312 h; Application Rate 1000 g/Ha; evaluated after 13 days; 100=total damage to plant, 0=no damage to plant; read-out: Control of weed species after post-emergence application, CHEAL
Protocol: as §1, §2, §3

**Q.** With `C[n+]1cc(C(=O)Nc2nncs2)c2ccccc2n1` [Compound A26] as the compound, how does the pest or weed control at 1000 g/ha read?
**A.** 40%

**Q.** How did the pest or weed control at 1000 g/ha turn out when `CS(=O)(=O)[N-]C(=O)c1c[n+](CC(F)F)nc2ccccc12` [Compound A14, [2-(2,2-difluoroethyl)cinnolin-2-ium-4-carbonyl]-methylsulfonyl-azanide] was run?
**A.** 20%

**Q.** Which pest or weed control at 1000 g/ha does the source give for `C[C@@H](NC(=O)c1c[n+](C)nc2ccccc12)C(=O)OC(C)(C)C` [Compound A8, tert-butyl (2R)-2-[(2-methylcinnolin-2-ium-4-carbonyl)amino]propanoate iodide] here?
**A.** 30%

system: Digitaria sanguinalis (DIGSA); assay: Post-emergence efficacy, glasshouse; type: in vivo; conditions: Digitaria sanguinalis, post-emergence, 312 h; Application Rate 1000 g/Ha; evaluated after 13 days; 100=total damage to plant, 0=no damage to plant; read-out: Control of weed species after post-emergence application, DIGSA
Protocol: as §1, §2, §3

**Q.** For `C[n+]1cc(C(=O)Nc2nncs2)c2ccccc2n1` [Compound A26], which pest or weed control at 1000 g/ha is on record?
**A.** 0%

**Q.** Which pest or weed control at 1000 g/ha does the source give for `CS(=O)(=O)[N-]C(=O)c1c[n+](CC(F)F)nc2ccccc12` [Compound A14, [2-(2,2-difluoroethyl)cinnolin-2-ium-4-carbonyl]-methylsulfonyl-azanide] here?
**A.** 40%

**Q.** With `C[C@@H](NC(=O)c1c[n+](C)nc2ccccc12)C(=O)OC(C)(C)C` [Compound A8, tert-butyl (2R)-2-[(2-methylcinnolin-2-ium-4-carbonyl)amino]propanoate iodide] as the compound, how does the pest or weed control at 1000 g/ha read?
**A.** 20%

system: Echinochloa crus-galli (ECHCG); assay: Post-emergence efficacy, glasshouse; type: in vivo; conditions: Echinochloa crus-galli, post-emergence, 312 h; Application Rate 1000 g/Ha; evaluated after 13 days; 100=total damage to plant, 0=no damage to plant; read-out: Control of weed species after post-emergence application, ECHCG
Protocol: as §1, §2, §3

**Q.** With `C[n+]1cc(C(=O)Nc2nncs2)c2ccccc2n1` [Compound A26] as the compound, how does the pest or weed control at 1000 g/ha read?
**A.** 20%

**Q.** With `CS(=O)(=O)[N-]C(=O)c1c[n+](CC(F)F)nc2ccccc12` [Compound A14, [2-(2,2-difluoroethyl)cinnolin-2-ium-4-carbonyl]-methylsulfonyl-azanide] as the compound, how does the pest or weed control at 1000 g/ha read?
**A.** 20%

**Q.** With `C[C@@H](NC(=O)c1c[n+](C)nc2ccccc12)C(=O)OC(C)(C)C` [Compound A8, tert-butyl (2R)-2-[(2-methylcinnolin-2-ium-4-carbonyl)amino]propanoate iodide] as the compound, how does the pest or weed control at 1000 g/ha read?
**A.** 20%

system: Eleusine indica (ELEIN); assay: Post-emergence efficacy, glasshouse; type: in vivo; conditions: Eleusine indica, post-emergence, 312 h; Application Rate 1000 g/Ha; evaluated after 13 days; 100=total damage to plant, 0=no damage to plant; read-out: Control of weed species after post-emergence application, ELEIN
Protocol: as §1, §2, §3

**Q.** `C[n+]1cc(C(=O)Nc2nncs2)c2ccccc2n1` [Compound A26] was tested. Which pest or weed control at 1000 g/ha did it give?
**A.** 20%

**Q.** How did the pest or weed control at 1000 g/ha turn out when `CS(=O)(=O)[N-]C(=O)c1c[n+](CC(F)F)nc2ccccc12` [Compound A14, [2-(2,2-difluoroethyl)cinnolin-2-ium-4-carbonyl]-methylsulfonyl-azanide] was run?
**A.** 30%

**Q.** Which pest or weed control at 1000 g/ha does the source give for `C[C@@H](NC(=O)c1c[n+](C)nc2ccccc12)C(=O)OC(C)(C)C` [Compound A8, tert-butyl (2R)-2-[(2-methylcinnolin-2-ium-4-carbonyl)amino]propanoate iodide] here?
**A.** 10%

system: Euphorbia heterophylla (EPHHL); assay: Post-emergence efficacy, glasshouse; type: in vivo; conditions: Euphorbia heterophylla, post-emergence, 312 h; Application Rate 1000 g/Ha; evaluated after 13 days; 100=total damage to plant, 0=no damage to plant; read-out: Control of weed species after post-emergence application, EPHHL
Protocol: as §1, §2, §3

**Q.** `C[n+]1cc(C(=O)Nc2nncs2)c2ccccc2n1` [Compound A26] was tested. Which pest or weed control at 1000 g/ha did it give?
**A.** 20%

**Q.** With `CS(=O)(=O)[N-]C(=O)c1c[n+](CC(F)F)nc2ccccc12` [Compound A14, [2-(2,2-difluoroethyl)cinnolin-2-ium-4-carbonyl]-methylsulfonyl-azanide] as the compound, how does the pest or weed control at 1000 g/ha read?
**A.** 40%

**Q.** With `C[C@@H](NC(=O)c1c[n+](C)nc2ccccc12)C(=O)OC(C)(C)C` [Compound A8, tert-butyl (2R)-2-[(2-methylcinnolin-2-ium-4-carbonyl)amino]propanoate iodide] as the compound, how does the pest or weed control at 1000 g/ha read?
**A.** 30%

system: Ipomoea hederacea (IPOHE); assay: Post-emergence efficacy, glasshouse; type: in vivo; conditions: Ipomoea hederacea, post-emergence, 312 h; Application Rate 1000 g/Ha; evaluated after 13 days; 100=total damage to plant, 0=no damage to plant; read-out: Control of weed species after post-emergence application, IPOHE
Protocol: as §1, §2, §3

**Q.** With `C[n+]1cc(C(=O)Nc2nncs2)c2ccccc2n1` [Compound A26] as the compound, how does the pest or weed control at 1000 g/ha read?
**A.** 30%

**Q.** How did the pest or weed control at 1000 g/ha turn out when `CS(=O)(=O)[N-]C(=O)c1c[n+](CC(F)F)nc2ccccc12` [Compound A14, [2-(2,2-difluoroethyl)cinnolin-2-ium-4-carbonyl]-methylsulfonyl-azanide] was run?
**A.** 40%

**Q.** How did the pest or weed control at 1000 g/ha turn out when `C[C@@H](NC(=O)c1c[n+](C)nc2ccccc12)C(=O)OC(C)(C)C` [Compound A8, tert-butyl (2R)-2-[(2-methylcinnolin-2-ium-4-carbonyl)amino]propanoate iodide] was run?
**A.** 10%

system: Lolium perenne (LOLPE); assay: Post-emergence efficacy, glasshouse; type: in vivo; conditions: Lolium perenne, post-emergence, 312 h; Application Rate 1000 g/Ha; evaluated after 13 days; 100=total damage to plant, 0=no damage to plant; read-out: Control of weed species after post-emergence application, LOLPE
Protocol: as §1, §2, §3

**Q.** How did the pest or weed control at 1000 g/ha turn out when `C[n+]1cc(C(=O)Nc2nncs2)c2ccccc2n1` [Compound A26] was run?
**A.** 10%

**Q.** With `CS(=O)(=O)[N-]C(=O)c1c[n+](CC(F)F)nc2ccccc12` [Compound A14, [2-(2,2-difluoroethyl)cinnolin-2-ium-4-carbonyl]-methylsulfonyl-azanide] as the compound, how does the pest or weed control at 1000 g/ha read?
**A.** 0%

**Q.** Which pest or weed control at 1000 g/ha does the source give for `C[C@@H](NC(=O)c1c[n+](C)nc2ccccc12)C(=O)OC(C)(C)C` [Compound A8, tert-butyl (2R)-2-[(2-methylcinnolin-2-ium-4-carbonyl)amino]propanoate iodide] here?
**A.** 20%

system: Setaria faberi (SETFA); assay: Post-emergence efficacy, glasshouse; type: in vivo; conditions: Setaria faberi, post-emergence, 312 h; Application Rate 1000 g/Ha; evaluated after 13 days; 100=total damage to plant, 0=no damage to plant; read-out: Control of weed species after post-emergence application, SETFA
Protocol: as §1, §2, §3

**Q.** Which pest or weed control at 1000 g/ha does the source give for `C[n+]1cc(C(=O)Nc2nncs2)c2ccccc2n1` [Compound A26] here?
**A.** 10%

**Q.** With `CS(=O)(=O)[N-]C(=O)c1c[n+](CC(F)F)nc2ccccc12` [Compound A14, [2-(2,2-difluoroethyl)cinnolin-2-ium-4-carbonyl]-methylsulfonyl-azanide] as the compound, how does the pest or weed control at 1000 g/ha read?
**A.** 30%

**Q.** `C[C@@H](NC(=O)c1c[n+](C)nc2ccccc12)C(=O)OC(C)(C)C` [Compound A8, tert-butyl (2R)-2-[(2-methylcinnolin-2-ium-4-carbonyl)amino]propanoate iodide] was tested. Which pest or weed control at 1000 g/ha did it give?
**A.** 10%
